Data published in patent US7932420B2, “Sulfonamides” (Allergan, Inc., priority 2005, dated 2011).

How the values were obtained:
hEP2 [1] = biological target: T1, hEP2 (Homo sapiens, UniProt P43116); test: in-vitro binding to prostaglandin receptor (bhEP2); settings: human EP2
hEP2 [2] = biological target: T1, hEP2; test: in-vitro activity at prostaglandin receptor (fhEP2); assay type: cell-based; settings: functional, human EP2
hEP4 = hEP4 (Homo sapiens, UniProt P35408); test: in-vitro binding to prostaglandin receptor (bhEP4); settings: human EP4
[3] = system: EP2 and EP4 receptors as compared to the FP, EP1, TP, IP and DP receptors; test: in-vitro assay for binding to and activity at prostaglandin receptors (selectivity)

T1 sequence (P43116 whole entry): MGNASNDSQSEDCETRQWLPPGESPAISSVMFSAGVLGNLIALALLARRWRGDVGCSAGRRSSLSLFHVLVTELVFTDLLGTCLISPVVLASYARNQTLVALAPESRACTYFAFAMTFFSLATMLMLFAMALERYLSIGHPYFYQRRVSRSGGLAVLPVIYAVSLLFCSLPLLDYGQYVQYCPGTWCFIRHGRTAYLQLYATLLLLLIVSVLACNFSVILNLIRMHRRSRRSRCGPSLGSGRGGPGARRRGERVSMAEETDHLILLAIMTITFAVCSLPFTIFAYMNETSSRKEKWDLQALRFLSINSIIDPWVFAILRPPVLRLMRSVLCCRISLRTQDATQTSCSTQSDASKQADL
hEP4, sequence (P35408 whole entry): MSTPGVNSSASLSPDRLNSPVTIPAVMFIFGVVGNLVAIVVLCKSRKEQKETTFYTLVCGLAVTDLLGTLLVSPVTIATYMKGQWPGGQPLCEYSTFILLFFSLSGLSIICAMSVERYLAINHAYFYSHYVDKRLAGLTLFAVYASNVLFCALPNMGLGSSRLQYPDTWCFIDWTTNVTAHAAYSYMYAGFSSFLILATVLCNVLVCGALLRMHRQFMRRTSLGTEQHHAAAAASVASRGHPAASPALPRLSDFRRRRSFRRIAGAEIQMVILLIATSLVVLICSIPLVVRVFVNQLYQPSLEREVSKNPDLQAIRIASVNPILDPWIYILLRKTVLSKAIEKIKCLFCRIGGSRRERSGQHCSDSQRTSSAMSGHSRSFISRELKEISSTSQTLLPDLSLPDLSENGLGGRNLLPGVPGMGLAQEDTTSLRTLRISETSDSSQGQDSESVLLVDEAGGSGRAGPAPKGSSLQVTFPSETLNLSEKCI

CCCC1(C(O)C/C=C/CN(CCCCCCC(=O)O)S(C)(=O)=O)CCC1 (stereo not shown) [Example 10, 7-[[5-Hydroxy-5-(1-propylcyclobutyl)pent-2-enyl]methanesulfonylamino]heptanoic acid] was tested, and the bhEP2 (hEP2 [1]) was 5560, the fhEP2 (hEP2 [2]) was 248 and the bhEP4 (hEP4) was 50K. The “selectivity among prostaglandin receptors” value [3] was “selective at the EP2 and EP4 receptors”.
